Assay results published in patent US10821151B2, “Compositions and methods for treating cancer and persistent viral infections” (SUSAVION BIOSCIENCES, INC., priority 2015, dated 2020).
Positions of bridges follow the written chain, without caps; N, C: chain ends. Chains are numbered I, II in the order given. No end group written: not given here.

What was measured:
cells = test: acridine orange / ethidium bromide cytotoxicity assay; format: cell-based; conditions: 1 mM
Procedure: (§1) Human PBMCs were incubated 3 days with peptides and then assay plates were stained with the soluble tetrazolium-based dye MTS to determine cell viability. The mitochondrial enzymes of metabolically active cells metabolize MTS to yield a colored formazan product. After an incubation period of 4 to 6 h at 37° C., the plates were read spectrophotometrically. Cells treated with peptide SVH1C alone or with diluted anti-HIV antiserum were 100±2% viable at peptide concentrations of 1 nM to 1 μM. In another assay to determine cytotoxicity, cells were doubly stained with acridine orange and ethidium bromide. In this assay, viable cells fluoresce green while dead cells fluoresce red.

NKG2D = molecular target: T1, NKG2D (Homo sapiens, UniProt P26718); test: solid-phase binding assay with Fc-chimeric NKG2D; conditions: for inhibition of binding of SVH1C to NKG2D: fetuin 5, 10, 30 μM, sialyllactose 12, 20, 40 μM
T1 sequence (P26718 78-216 limits assumed): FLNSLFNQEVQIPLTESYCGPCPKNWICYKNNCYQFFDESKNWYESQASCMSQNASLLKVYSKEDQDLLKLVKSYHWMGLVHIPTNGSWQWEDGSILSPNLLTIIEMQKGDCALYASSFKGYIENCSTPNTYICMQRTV

MTS cell viability assay = format: cell-based; conditions: human, human PBMCs; 3 days, peptide alone or with diluted anti-HIV antiserum, 1 nM to 1 μM
Procedure: as §1

CLEC10a = molecular target: T2, CLEC10a (Homo sapiens, UniProt Q8IUN9); test: solid-phase binding assay
T2 sequence (Q8IUN9 1-316): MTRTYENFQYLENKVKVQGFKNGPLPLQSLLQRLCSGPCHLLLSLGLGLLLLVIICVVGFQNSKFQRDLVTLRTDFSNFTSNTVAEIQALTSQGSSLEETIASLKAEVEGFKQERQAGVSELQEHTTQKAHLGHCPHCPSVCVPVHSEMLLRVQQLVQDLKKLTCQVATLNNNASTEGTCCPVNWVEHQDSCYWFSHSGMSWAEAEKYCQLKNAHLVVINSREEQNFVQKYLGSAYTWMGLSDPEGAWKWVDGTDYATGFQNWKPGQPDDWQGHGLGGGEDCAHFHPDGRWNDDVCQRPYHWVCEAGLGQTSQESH
Procedure: (§2) The buffer in these assays was PBS containing 0.05% Tween-20. […] The receptors were Fc-chimeras and were assayed in protein A/G-coated microtiter wells. Siglec-1 and CLEC10a contained a C-terminal His tag and were assayed in a separate experiment with Ni-coated wells. SEM was determined from four independent experiments run in duplicate. Inhibition by fetuin is shown by the average of two assays in which the glycoprotein was added at 10 μM (second, black bar) or 30 μM (third, light grey bar) in each receptor group. Binding was measured by a colorimetric assay of peroxidase.
(§3) The buffer in these assays was PBS containing 0.05% Tween-20. […] The receptors were Fc-chimeras and were assayed in protein A/G-coated microtiter wells. The assay was similar to that described under FIG. 7.
(§4) Biotinylated peptides were then incubated with the receptors, the wells were stringently washed and the bound peptide was detected by binding of streptavidin conjugated with peroxidase.

ovarian cancer cell line = test: mouse model of ovarian cancer, ascites monitored by body weight
Procedure: Body weights of individual mice were measured during treatment with 1 or 0.1 nmole/g doses of SV6D (SEQ ID NO:5) injected subcutaneously every other day.
In a mouse model of ovarian cancer, a cancer cell line was implanted into the peritoneal cavity. The cells form tumors and in time also release malignant cells into the cavity. The activity of SV6D to treat ovarian cancer was tested by alternate-day injections of 1 and 0.1 nanomole per gram of SV6D. Development of ascites was monitored by an increase in body weight of the animals.

dectin-1 = molecular target: T3, dectin-1 (Homo sapiens, UniProt Q9BXN2); test: solid-phase binding assay
T3 sequence (Q9BXN2 1-247): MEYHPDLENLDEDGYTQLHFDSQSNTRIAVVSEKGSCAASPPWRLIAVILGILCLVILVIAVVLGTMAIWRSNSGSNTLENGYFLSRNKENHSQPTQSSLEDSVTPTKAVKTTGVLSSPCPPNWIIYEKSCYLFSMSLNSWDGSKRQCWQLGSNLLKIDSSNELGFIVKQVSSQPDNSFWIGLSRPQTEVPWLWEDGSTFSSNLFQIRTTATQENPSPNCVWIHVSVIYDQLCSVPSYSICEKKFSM
Procedure: (§5) The buffer in these assays was PBS containing 0.05% Tween-20. […] The receptors were Fc-chimeras and were assayed in protein A/G-coated microtiter wells.
as §4

DC-SIGN = molecular target: T4, DC-SIGN (Homo sapiens, UniProt Q9NNX6); test: solid-phase binding assay
T4 sequence (Q9NNX6 1-404): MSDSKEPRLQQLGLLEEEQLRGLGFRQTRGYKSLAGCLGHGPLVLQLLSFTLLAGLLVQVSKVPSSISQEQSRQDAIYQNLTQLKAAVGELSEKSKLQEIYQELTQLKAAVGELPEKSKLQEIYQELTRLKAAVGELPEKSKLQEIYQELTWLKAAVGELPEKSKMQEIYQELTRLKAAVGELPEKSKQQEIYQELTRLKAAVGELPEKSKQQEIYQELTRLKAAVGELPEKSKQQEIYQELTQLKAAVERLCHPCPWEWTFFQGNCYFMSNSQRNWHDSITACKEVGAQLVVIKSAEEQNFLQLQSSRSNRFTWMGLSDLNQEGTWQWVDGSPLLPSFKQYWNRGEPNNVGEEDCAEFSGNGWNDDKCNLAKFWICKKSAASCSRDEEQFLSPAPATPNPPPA
Procedure: as §2, §3, §4

CLEC9a = CLEC9a (Homo sapiens, UniProt Q6UXN8); test: solid-phase binding assay
Procedure: as §2, §3, §4

Siglec-1 = Siglec-1 (Homo sapiens, UniProt Q9BZZ2); test: solid-phase binding assay
Procedure: as §5, §4

ASGPR-1 = molecular target: T5, ASGPR-1 (Homo sapiens, UniProt P07306); test: solid-phase binding assay
T5 sequence (P07306 1-291): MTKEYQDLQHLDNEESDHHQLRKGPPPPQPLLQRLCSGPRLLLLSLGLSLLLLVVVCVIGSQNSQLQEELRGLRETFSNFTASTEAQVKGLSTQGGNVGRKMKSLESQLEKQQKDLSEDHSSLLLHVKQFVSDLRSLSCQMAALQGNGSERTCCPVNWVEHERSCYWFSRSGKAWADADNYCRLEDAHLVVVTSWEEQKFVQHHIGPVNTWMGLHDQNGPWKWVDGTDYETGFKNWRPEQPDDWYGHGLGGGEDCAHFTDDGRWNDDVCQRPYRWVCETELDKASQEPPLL
Procedure: as §5, §4

langerin = langerin (Homo sapiens, UniProt Q9UJ71); test: solid-phase binding assay
Procedure: as §5, §4

siglecs = test: solid-phase binding assay, biotinylated peptide, streptavidin-peroxidase; conditions: fetuin added at 10 μM or 30 μM
Procedure: The buffer in these assays was PBS containing 0.05% Tween-20. […] The receptors were Fc-chimeras and were assayed in protein A/G-coated microtiter wells. Siglec-1 and CLEC10a contained a C-terminal His tag and were assayed in a separate experiment with Ni-coated wells. SEM was determined from four independent experiments run in duplicate. […] Binding was measured by a colorimetric assay of peroxidase.

Sequence of CLEC9a (Q6UXN8 whole entry): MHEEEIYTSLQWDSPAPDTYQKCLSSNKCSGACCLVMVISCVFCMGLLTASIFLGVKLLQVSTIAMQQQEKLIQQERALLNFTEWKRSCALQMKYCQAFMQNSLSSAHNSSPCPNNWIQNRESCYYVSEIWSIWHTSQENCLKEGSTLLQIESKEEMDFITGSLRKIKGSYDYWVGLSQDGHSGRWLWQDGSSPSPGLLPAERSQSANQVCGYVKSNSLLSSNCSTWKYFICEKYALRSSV
Sequence of Siglec-1 (Q9BZZ2 20-1709): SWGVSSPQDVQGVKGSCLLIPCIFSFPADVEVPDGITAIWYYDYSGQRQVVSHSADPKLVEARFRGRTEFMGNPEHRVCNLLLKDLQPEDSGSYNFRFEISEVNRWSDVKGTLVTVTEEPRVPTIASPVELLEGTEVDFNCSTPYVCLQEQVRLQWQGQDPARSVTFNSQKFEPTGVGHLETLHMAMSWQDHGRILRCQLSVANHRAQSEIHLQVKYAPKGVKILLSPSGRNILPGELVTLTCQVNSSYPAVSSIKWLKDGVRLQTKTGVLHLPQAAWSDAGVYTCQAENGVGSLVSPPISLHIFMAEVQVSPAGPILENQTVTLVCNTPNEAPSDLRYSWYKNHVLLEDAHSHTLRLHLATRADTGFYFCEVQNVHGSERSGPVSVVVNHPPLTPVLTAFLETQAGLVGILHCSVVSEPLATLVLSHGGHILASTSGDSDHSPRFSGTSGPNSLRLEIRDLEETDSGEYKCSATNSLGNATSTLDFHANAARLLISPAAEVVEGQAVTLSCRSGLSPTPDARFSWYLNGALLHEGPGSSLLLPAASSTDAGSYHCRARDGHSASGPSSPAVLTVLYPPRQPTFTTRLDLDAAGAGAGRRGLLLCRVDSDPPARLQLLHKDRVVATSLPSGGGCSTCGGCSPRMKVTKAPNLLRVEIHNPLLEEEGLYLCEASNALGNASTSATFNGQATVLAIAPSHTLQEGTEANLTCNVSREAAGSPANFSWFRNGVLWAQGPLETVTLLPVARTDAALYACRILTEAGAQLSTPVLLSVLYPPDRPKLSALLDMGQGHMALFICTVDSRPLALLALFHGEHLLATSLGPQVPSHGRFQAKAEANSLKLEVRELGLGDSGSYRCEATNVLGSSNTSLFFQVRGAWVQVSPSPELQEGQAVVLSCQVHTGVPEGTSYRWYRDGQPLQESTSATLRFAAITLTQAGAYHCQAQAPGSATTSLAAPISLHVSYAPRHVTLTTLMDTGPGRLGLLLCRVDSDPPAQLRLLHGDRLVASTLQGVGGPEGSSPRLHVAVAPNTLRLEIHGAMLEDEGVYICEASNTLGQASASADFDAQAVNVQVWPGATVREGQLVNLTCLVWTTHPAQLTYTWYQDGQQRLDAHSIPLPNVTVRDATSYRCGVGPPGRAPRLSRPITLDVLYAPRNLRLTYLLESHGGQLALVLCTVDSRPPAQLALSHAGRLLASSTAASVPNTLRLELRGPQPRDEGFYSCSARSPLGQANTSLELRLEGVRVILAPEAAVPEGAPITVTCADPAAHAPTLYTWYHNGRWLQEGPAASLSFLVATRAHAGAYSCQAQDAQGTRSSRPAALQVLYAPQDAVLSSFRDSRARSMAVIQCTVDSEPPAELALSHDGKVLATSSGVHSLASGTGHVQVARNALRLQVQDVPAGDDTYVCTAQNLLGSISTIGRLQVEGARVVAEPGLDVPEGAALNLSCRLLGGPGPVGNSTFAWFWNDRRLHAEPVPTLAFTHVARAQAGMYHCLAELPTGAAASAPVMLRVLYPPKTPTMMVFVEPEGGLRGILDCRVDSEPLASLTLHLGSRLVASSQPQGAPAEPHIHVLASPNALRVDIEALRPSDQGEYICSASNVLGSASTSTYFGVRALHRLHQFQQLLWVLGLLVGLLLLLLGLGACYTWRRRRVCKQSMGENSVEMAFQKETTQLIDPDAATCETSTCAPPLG
Sequence of langerin (Q9UJ71 whole entry): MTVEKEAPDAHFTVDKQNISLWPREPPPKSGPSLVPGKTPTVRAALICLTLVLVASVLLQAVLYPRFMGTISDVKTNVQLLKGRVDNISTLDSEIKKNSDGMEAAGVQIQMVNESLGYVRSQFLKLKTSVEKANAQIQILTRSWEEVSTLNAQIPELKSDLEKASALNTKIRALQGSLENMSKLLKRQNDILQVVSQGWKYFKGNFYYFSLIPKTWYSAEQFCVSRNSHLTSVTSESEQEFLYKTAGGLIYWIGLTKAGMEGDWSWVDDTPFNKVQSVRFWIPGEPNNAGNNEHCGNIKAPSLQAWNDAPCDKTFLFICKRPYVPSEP

## I: NPSHPLSGGGGSKK-NH2 / II: NPSHPLSGGGGSK / III: NPSHPLSGGGGS / IV: NPSHPLSGGGGS (amide I:13-IV:C, I:14-II:C, II:13-III:C) [SVH1C, [NPSHPLSGGGGS]4K3-NH2]
cells
  cytotoxicity: did not exhibit cytotoxicity
NKG2D
  Kd: ~1000 nM
MTS cell viability assay
  viability at 72 h: 100 ± 2%

## sialyllactose
NKG2D
  inhibition of binding of SVH1C to NKG2D: inhibited

## [NQHTPRGGGS]4K3-NH2 [SV6D]
CLEC10a
  binding to CLEC10a: bound strongly
Ovarian cancer cell line
  progression of ascites: effectively inhibited
dectin-1
  binding to dectin-1: bound strongly
DC-SIGN
  binding to DC-SIGN: not
CLEC9a
  binding to CLEC9a: not
Siglec-1
  binding to Siglec-1: not
ASGPR-1
  binding to ASGPR-1: bound strongly
langerin
  binding to langerin: bound strongly

## fetuin
NKG2D
  inhibition of binding of SVH1C to NKG2D: inhibited
siglecs
  inhibition of binding of SVH1C to siglecs: inhibited
